One block for each molecule: values may come before it.
Assays:
[1] = target: T1, Luciferin 4-monooxygenase (Luciola lateralis, UniProt Q01158); test: Inhibition constant against luciferase with respect to natural substrate luciferin; design: species or system Aquatica lateralis
T1 sequence (Q01158 whole entry): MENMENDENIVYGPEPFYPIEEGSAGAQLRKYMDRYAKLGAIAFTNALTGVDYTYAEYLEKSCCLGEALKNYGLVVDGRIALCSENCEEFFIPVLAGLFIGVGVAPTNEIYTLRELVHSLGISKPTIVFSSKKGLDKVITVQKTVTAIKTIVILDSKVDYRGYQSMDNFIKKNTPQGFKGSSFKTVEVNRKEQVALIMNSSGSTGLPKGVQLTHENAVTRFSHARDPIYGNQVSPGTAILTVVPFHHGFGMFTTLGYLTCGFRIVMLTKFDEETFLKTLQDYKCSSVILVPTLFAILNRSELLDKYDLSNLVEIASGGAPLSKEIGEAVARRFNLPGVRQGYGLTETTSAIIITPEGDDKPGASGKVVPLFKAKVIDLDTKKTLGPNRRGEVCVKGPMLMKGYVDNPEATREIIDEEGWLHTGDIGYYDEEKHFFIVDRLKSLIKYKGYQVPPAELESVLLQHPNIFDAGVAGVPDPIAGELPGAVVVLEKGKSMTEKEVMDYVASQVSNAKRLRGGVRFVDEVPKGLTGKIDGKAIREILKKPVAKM

[2] = target: T1, Luciferin 4-monooxygenase; test: Inhibition constant against luciferase with respect to natural substrate Mg-ATP; design: species or system Aquatica lateralis
[3] = target: T1, Luciferin 4-monooxygenase; test: Inhibition constant against luciferase with respect to luciferyl-adenylate; design: species or system Aquatica lateralis
[4] = substrate: Nc1ncnc2c1ncn2C1O[C@H](COP(=O)(O)OC(=O)c2csc(-c3nc4ccc(O)cc4s3)n2)[C@@H](O)[C@H]1O; test: Binding affinity against luciferase; settings: Aquatica lateralis

Ki [1]: 34 nM | Ki [2]: 41 nM | Ki [3]: 340 nM
Molecule: Nc1ncnc2c1ncn2[C@@H]1O[C@H](COS(=O)(=O)NC(=O)c2csc(-c3nc4ccc(O)cc4s3)n2)[C@@H](O)[C@H]1O

B1: Luciferin 4-monooxygenase (Luciola lateralis), Q01158 (protein)
chain: T1 sequence (Q01158 whole entry)
Km [4]: 4.7 µM
